Reference: patent US10265289B2, “Method and medicines for treating melanoma” (SICHUAN JIUZHANG BIOLOGICAL SCIENCE AND TECHNOLOGY CO., LTD., priority 2015, dated 2019)

Experiments:
mouse melanoma B16 [1] = test: Example 6: chlorogenic acid-adriamycin or chlorogenic acid-cisplatin combination against mouse melanoma B16; assay type: in vivo
Source text: (§1) Each group contains 15 animals.

mouse melanoma B16 [2] = test: Example 7: chlorogenic acid-5-flurouracil combination against mouse melanoma B16; conditions: 5-flurouracil 500 mg/kg × 4, i.p.
Protocol: Next day after inoculation, animals were divided into groups, weighed, and administration of drugs started. Normal saline was administrated to mice in the negative control group by peritoneal injection at 0.2 ml/10 g, once a day.
Each group contains 12 animals. […] Tumor control rate (%) was calculated based on tumor weight.

mouse melanoma B16 [3] = test: Example 4: tumor inhibitory rate of chlorogenic acid against mouse melanoma B16
Source text: (§2) After inoculation, animals were divided into groups next day, weighed, and administration of drugs started.
Each group includes 15 animals.

mouse melanoma B16 [4] = test: Example 5: chlorogenic acid-cyclophosphamide combination against mouse melanoma B16
Source text: as §2, §1

[5] = system: M1-type macrophage marker iNOS and M2-type macrophage marker Arg; test: Example 2: maintenance of M1-type macrophages (LPS+INFγ) in mouse melanoma B16 model; assay type: in vivo; conditions: LPS + INFγ + chlorogenic acid 5, 10, 20 mg/kg, dose-dependent
Protocol: Each group includes 15 animals. After successful anesthesia of mice, bilateral eyeballs were removed and mice were killed by bleeding. […] Mice were placed in supine position, with segmental […] being toward up. 5 ml serum-free DMEM medium preheated at 37° C. was drawn out using 5 ml aseptic syringe, and middle-lower abdominal skin of mice was lifted with a tweezer, then 5 ml pre-suctioned serum-free DMEM medium preheated at 37° C. was injected to abdominal cavity (note: needlepoint being toward up, avoiding intestinal canal and fat). After that, bilateral peritoneal wall was gently kneaded and pressed for about 20-30 seconds, to make the intraperitoneal fluid fully flow. When collecting the peritoneal fluid, a little cut was opened on mouse hypogastric region using a surgical scissor, and skin was […] toward two sides, to thoroughly expose the peritoneum, then it was wiped and cleaned with 75% alcoholic cotton balls for sterilization. […] (3) Cell phenotype was detected by flow cytometer, and the corresponding marker of same sample was determined using real-time fluorescent quantified PCR. […]

[6] = system: M1-type macrophage markers iNOS, IL-12, TNF-α and M2-type macrophage marker Arg; test: Example 1: macrophage marker expression (flow cytometer, real-time fluorescent quantified PCR) in mouse melanoma B16 model; assay type: in vivo; conditions: 5, 10, 20 mg/kg i.p. once a day for 13 days
Protocol: Each group has 15 animals. […] After successful anesthesia of mice, bilateral eyeballs were removed and mice were killed by bleeding. […] Mice were placed in supine position, with segmental […] being toward up. 5 ml serum-free DMEM medium preheated at 37° C. was drawn out using 5 ml aseptic syringe, and middle-lower abdominal skin of mice was lifted with a tweezer, then 5 ml pre-suctioned serum-free DMEM medium preheated at 37° C. was injected to abdominal cavity (note: needlepoint being toward up, avoiding intestinal canal and fat). After that, bilateral peritoneal wall was gently kneaded and pressed for about 20-30 seconds, to make the intraperitoneal fluid fully flow. When collecting the peritoneal fluid, a little cut was opened on mouse hypogastric region using a surgical scissor, and skin was […] toward two sides, to thoroughly expose the peritoneum, then it was wiped and cleaned with 75% alcoholic cotton balls for sterilization. Further, about […] of little cut was opened on mouse peritoneum using ophthalmic scissors, and the peritoneal fluid was drawn back with 5 ml aseptic syringe (Try not to absorb intestinal canal and fat, otherwise, it is easy to cause contamination of fibroblasts), then transferred to 15.0 ml centrifuge tube and centrifugated at 1200 rpm/min for 5 min, to remove the supernatant fluid. The residue was re-suspended in sterile normal saline at […] and transferred into 1.5 ml centrifuge tube for use. […] During enzymatic digestion, centrifuge tubes were shaken every 10-15 minutes. When the fluid in centrifuge tubes became turbid, the piece of tumor tissue had already disintegrated and lost its massive shape. Once being shaken, the mass would become cell clumps or single cell, indicating the tumor tissue piece had already been fully digested. The enzymatic digestion time can be suitably shortened or elongated as the digestion degree of tumor tissue. […] Cells were re-suspended in sterile normal saline at […], and transferred to 1.5 ml centrifuge tubes for use. (3) Cell phenotype was detected by flow cytometer, and the corresponding marker of same sample was determined using real-time fluorescent quantified PCR. Results were shown in FIGS. 1-3, in which FIGS. 1-3 are respectively the detection result graphs of iNOS, IL-12, Arg expression in example 1. FIG. 4 is the detection result graph of TNF-α expression in example 1.

[7] = system: M1-type and M2-type macrophages (iNOS, IL-10, Arg expression); test: Example 3: transformation of M2-type to M1-type macrophages (IL-4) in mouse melanoma B16 model; assay type: in vivo; conditions: IL-4 + chlorogenic acid 5, 10, 20 mg/kg
Protocol: Each group includes 15 animals. After successful anesthesia of mice, bilateral eyeballs were removed and mice were killed by bleeding. […] Mice were placed in supine position, with segmental […] being toward up. 5 ml serum-free DMEM medium preheated at 37° C. was drawn out using 5 ml aseptic syringe, and middle-lower abdominal skin of mice was lifted with a tweezer, then 5 ml medium was injected to abdominal cavity (note: needlepoint being toward up, avoiding intestinal canal and fat). After that, bilateral peritoneal wall was gently kneaded and pressed for about 20-30 seconds, to make the intraperitoneal fluid fully flow. When collecting the peritoneal fluid, a little cut was opened on mouse hypogastric region using a surgical scissor, and skin was […] toward two sides, to thoroughly expose the peritoneum, then it was wiped and cleaned with 75% alcoholic cotton balls for sterilization. […] (3) Cell phenotype was detected by flow cytometer, and the corresponding marker of same sample was determined using real-time fluorescent quantified PCR. […]

[8] = cyclophosphamide 60 mg/kg × 1, i.p.
[9] = dose-dependent, strongest at 20 mg/kg

Q: What does the source list for `COc1cccc2c1C(=O)c1c(O)c3c(c(O)c1C2=O)C[C@@](O)(C(=O)CO)C[C@@H]3O[C@H]1C[C@H](N)[C@H](O)[C@H](C)O1` [Adriamycin, adriamycin]?
A: Body weight change rate (%) (mouse melanoma B16 [1]; adriamycin 3 mg/kg × 6, i.p.): 22.39%; Tumor inhibitory rate (%) (mouse melanoma B16 [1]; adriamycin 3 mg/kg × 6, i.p.): 58.89%; Tumor weight (g) x ± SD (mouse melanoma B16 [1]; adriamycin 3 mg/kg × 6, i.p.): 1.90 ± 0.56 g

Q: What does the source list for `O=c1[nH]cc(F)c(=O)[nH]1` [5-flurouracil, 5-fluorouracil]?
A: Tumor inhibitory rate (%) (mouse melanoma B16 [2]): 86.80%; Tumor weight (g) x ± SD (mouse melanoma B16 [2]): 0.30 ± 0.18 g; Body weight (g) x ± SD Initial (mouse melanoma B16 [2]; BALB/c mice, before dosing): 19.17 ± 0.72 g

Q: What does the source list for `N.N.[Cl][Pt][Cl]` [Cisplatin, cisplatin]?
A: Tumor inhibitory rate (%) (mouse melanoma B16 [1]; cisplatin 3 mg/kg × 6, i.p.): 65.97%; Tumor weight (g) x ± SD (mouse melanoma B16 [1]; cisplatin 3 mg/kg × 6, i.p.): 1.58 ± 0.69 g

Q: With `O=P1(N(CCCl)CCCl)NCCCO1` (stereo not drawn) [cyclophosphamide, reference compound] as the molecule, how does the “Tumor inhibitory rate (%)” value (mouse melanoma B16 [3]; [8]) read?
A: Its value is 57.79%.

Q: And the “Tumor weight (g) x ± SD” value (mouse melanoma B16 [3]; [8])?
A: Its value is 1.38 ± 0.62 g.

Q: And the “Body weight (g) x ± SD End” value (mouse melanoma B16 [3]; cyclophosphamide 60 mg/kg × 1, i.p., C57BL/6 mice, end of study)?
A: The value was 23.01 ± 1.04 g.

Q: What about the “Tumor inhibitory rate (%)” value (mouse melanoma B16 [4]; [8]) of the same molecule?
A: Its value is 61.40%.

Q: And the “Tumor weight (g) x ± SD” value (mouse melanoma B16 [4]; [8])?
A: Its value is 1.46 ± 0.54 g.

Q: What about the “Body weight (g) x ± SD End” value (mouse melanoma B16 [4]; cyclophosphamide 60 mg/kg × 1, i.p., end of study) of the same molecule?
A: Its value is 22.58 ± 1.15 g.

Q: With `O=C(/C=C/c1ccc(O)c(O)c1)O[C@@H]1C[C@](O)(C(=O)O)C[C@@H](O)[C@H]1O` [Chlorogenic acid, 3-O-caffeoylquinic acid] as the molecule, how does the “Tumor inhibitory rate (%)” value (mouse melanoma B16 [3]; 5 mg/kg × 13, i.p. once a day) read?
A: The value was 17.23%.

Q: And the “Tumor weight (g) x ± SD” value (mouse melanoma B16 [3]; 5 mg/kg × 13, i.p. once a day)?
A: Its value is 2.70 ± 0.76 g.

Q: What about the “Tumor inhibitory rate (%)” value (mouse melanoma B16 [3]; 10 mg/kg × 13, i.p. once a day) of the same molecule?
A: Its value is 43.87%.

Q: What about the “Tumor weight (g) x ± SD” value (mouse melanoma B16 [3]; 10 mg/kg × 13, i.p. once a day) of the same molecule?
A: Its value is 1.83 ± 0.86 g.

Q: What about the “Tumor inhibitory rate compared with cyclophosphamide” value (mouse melanoma B16 [3]; 20 mg/kg chlorogenic acid vs 60 mg/kg cyclophosphamide) of the same molecule?
A: Its value is “close to that of cyclophosphamide”.

Q: What about the “Tumor inhibitory rate (%)” value (mouse melanoma B16 [3]; 20 mg/kg × 13, i.p. once a day) of the same molecule?
A: Its value is 48.66%.

Q: And the “Tumor weight (g) x ± SD” value (mouse melanoma B16 [3]; 20 mg/kg × 13, i.p. once a day)?
A: Its value is 1.68 ± 0.69 g.

Q: What about the “effect on growth of mouse melanoma B16” value (mouse melanoma B16 [3]; intraperitoneal injection, 5-20 mg/kg × 13, certain dose-effect relationship) of the same molecule?
A: Its value is “obviously inhibitory effect”.

Q: What about the “effect on the anti-tumor effect of adriamycin” value (mouse melanoma B16 [1]; 20 mg/kg chlorogenic acid + 3 mg/kg adriamycin) of the same molecule?
A: The value was “significantly potentialize”.

Q: And the “effect on the anti-tumor effect of cisplatin” value (mouse melanoma B16 [1]; 20 mg/kg chlorogenic acid + 3 mg/kg cisplatin)?
A: Its value is “significantly potentialize”.

Q: What about the “state of M2-type macrophage marker Arg (FIG. 6)” value [5] of the same molecule?
A: Its value is “relatively lower state”.

Q: What about the “expression state of M1-type macrophage markers (iNOS, FIG. 5)” value ([5]; highest at 20 mg/kg) of the same molecule?
A: The value was “maintain the high expression state”.

Q: And the “expression of M1-type macrophage marker TNF-α (FIG. 4)” value [6]?
A: Its value is “promote the expression”.

Q: And the “expression of M1-type macrophage marker IL-12 (FIG. 2)” value [6, 9]?
A: The value was “obviously promote the expression”.

Q: What about the “expression of M1-type macrophage marker iNOS (FIG. 1)” value [6, 9] of the same molecule?
A: The value was “obviously promote the expression”.

Q: What about the “expression of M2-type macrophage marker Arg (FIG. 3)” value [6, 9] of the same molecule?
A: The value was “obviously inhibit the expression”.

Q: And the “effect of combination on anti-tumor effects of cyclophosphamide” value (mouse melanoma B16 [4]; 20 mg/kg chlorogenic acid combined with cyclophosphamide 60 mg/kg)?
A: Its value is “obviously improve anti-tumor effects of cyclophosphamide”.

Q: And the “growth of M1-type macrophage cells (FIG. 7)” value [7]?
A: Its value is “positive correlation with the dose”.

Q: What about the “growth of M2-type macrophage cells (FIG. 8)” value [7] of the same molecule?
A: The value was “negative correlation with the dose”.
